According to US12172995B2, “Substituted indole and indazole compounds” (BRISTOL-MYERS SQUIBB COMPANY, priority 2018, dated 2024):

Experiments:
Assay type in all cases: cell-based
human TLR7 = biological target: T1, human TLR7 (Homo sapiens, UniProt Q9NYK1); assay: TLR7 inhibition reporter assay (HEK-Blue SEAP); conditions: HEK-Blue cells overexpressing human TLR7, stimulated with gardiquimod 7.5 μM, 22 hour incubation
T1 construct: host or cells: HEK-Blue cells
T1 sequence (Q9NYK1 27-1049): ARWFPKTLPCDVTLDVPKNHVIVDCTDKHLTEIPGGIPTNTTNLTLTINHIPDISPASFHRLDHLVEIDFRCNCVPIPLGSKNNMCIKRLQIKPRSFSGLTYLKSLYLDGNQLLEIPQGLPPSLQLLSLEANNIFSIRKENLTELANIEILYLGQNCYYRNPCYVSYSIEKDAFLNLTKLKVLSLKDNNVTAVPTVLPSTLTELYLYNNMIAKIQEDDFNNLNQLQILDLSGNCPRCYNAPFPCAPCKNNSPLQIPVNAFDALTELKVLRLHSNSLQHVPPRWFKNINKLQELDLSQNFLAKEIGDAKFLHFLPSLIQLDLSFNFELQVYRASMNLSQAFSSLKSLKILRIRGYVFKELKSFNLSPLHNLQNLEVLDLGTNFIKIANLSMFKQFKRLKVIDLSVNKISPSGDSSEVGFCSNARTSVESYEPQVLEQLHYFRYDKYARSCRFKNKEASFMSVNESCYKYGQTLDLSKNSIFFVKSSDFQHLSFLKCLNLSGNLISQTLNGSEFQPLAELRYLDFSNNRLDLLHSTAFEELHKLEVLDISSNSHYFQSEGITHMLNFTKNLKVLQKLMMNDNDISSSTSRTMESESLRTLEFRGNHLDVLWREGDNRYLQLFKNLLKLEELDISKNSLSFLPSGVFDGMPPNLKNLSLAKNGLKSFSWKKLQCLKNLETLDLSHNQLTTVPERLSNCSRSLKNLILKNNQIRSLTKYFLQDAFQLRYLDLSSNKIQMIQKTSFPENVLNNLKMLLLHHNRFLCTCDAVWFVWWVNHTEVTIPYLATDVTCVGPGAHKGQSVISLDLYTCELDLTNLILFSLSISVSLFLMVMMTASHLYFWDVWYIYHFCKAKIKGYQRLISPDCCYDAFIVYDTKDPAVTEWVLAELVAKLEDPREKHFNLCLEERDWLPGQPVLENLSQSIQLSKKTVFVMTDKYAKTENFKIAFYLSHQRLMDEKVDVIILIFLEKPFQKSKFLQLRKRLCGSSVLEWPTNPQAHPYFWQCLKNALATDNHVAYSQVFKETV
Method in brief: (§1)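 HEK-Blue cells overexpressing human TLR7, TLR8 or TLR9 with an NF-κB/AP-1-driven SEAP reporter were pre-treated 30 min at room temperature with compound (0.05 nM to 50 μM), then stimulated with gardiquimod 7.5 μM (TLR7), R848 15.9 μM (TLR8) or ODN2006 5 nM (TLR9). SEAP measured after 22 h at 37° C; inhibition normalized between agonist-plus-DMSO and reference-inhibitor wells.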

human TLR9 = biological target: T2, human TLR9 (Homo sapiens, UniProt Q9NR96); assay: TLR9 inhibition reporter assay (HEK-Blue SEAP); conditions: HEK-Blue cells overexpressing human TLR9, stimulated with ODN2006 5 nM, 22 hour incubation
T2 construct: host or cells: HEK-Blue cells
T2 sequence (Q9NR96 26-1032): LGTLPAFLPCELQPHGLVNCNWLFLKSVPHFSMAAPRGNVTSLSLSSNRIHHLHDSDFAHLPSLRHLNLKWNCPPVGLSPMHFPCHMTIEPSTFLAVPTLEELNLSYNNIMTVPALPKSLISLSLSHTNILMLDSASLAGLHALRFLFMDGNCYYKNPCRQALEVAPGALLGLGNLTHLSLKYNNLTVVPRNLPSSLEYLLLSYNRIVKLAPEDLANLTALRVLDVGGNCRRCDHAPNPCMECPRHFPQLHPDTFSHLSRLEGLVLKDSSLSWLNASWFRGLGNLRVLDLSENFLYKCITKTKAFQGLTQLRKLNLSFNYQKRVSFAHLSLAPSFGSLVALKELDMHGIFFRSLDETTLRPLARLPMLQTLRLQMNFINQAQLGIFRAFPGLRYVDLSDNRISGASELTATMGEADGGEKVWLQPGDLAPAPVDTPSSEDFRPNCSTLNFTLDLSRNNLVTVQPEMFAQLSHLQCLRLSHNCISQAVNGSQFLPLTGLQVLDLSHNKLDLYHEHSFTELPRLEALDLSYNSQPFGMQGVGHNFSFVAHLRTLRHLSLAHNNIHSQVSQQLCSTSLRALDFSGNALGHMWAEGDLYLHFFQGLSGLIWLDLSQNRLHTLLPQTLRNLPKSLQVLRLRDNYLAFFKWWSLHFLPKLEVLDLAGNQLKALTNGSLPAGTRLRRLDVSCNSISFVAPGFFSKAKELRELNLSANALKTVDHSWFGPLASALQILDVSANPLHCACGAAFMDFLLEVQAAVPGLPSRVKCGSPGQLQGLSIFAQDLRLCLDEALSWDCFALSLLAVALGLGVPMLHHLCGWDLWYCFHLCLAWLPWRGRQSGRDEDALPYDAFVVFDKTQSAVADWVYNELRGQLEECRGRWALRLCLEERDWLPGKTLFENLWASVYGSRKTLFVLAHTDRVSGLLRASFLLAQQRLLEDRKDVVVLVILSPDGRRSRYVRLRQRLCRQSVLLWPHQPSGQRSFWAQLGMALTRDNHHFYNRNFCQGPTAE
Method in brief: as §1

human TLR8 = biological target: T3, human TLR8 (Homo sapiens, UniProt Q9NR97); assay: TLR8 inhibition reporter assay (HEK-Blue SEAP); conditions: HEK-Blue cells overexpressing human TLR8, stimulated with R848 15.9 μM, 22 hour incubation
T3 construct: host or cells: HEK-Blue cells
T3 sequence (Q9NR97 27-1041): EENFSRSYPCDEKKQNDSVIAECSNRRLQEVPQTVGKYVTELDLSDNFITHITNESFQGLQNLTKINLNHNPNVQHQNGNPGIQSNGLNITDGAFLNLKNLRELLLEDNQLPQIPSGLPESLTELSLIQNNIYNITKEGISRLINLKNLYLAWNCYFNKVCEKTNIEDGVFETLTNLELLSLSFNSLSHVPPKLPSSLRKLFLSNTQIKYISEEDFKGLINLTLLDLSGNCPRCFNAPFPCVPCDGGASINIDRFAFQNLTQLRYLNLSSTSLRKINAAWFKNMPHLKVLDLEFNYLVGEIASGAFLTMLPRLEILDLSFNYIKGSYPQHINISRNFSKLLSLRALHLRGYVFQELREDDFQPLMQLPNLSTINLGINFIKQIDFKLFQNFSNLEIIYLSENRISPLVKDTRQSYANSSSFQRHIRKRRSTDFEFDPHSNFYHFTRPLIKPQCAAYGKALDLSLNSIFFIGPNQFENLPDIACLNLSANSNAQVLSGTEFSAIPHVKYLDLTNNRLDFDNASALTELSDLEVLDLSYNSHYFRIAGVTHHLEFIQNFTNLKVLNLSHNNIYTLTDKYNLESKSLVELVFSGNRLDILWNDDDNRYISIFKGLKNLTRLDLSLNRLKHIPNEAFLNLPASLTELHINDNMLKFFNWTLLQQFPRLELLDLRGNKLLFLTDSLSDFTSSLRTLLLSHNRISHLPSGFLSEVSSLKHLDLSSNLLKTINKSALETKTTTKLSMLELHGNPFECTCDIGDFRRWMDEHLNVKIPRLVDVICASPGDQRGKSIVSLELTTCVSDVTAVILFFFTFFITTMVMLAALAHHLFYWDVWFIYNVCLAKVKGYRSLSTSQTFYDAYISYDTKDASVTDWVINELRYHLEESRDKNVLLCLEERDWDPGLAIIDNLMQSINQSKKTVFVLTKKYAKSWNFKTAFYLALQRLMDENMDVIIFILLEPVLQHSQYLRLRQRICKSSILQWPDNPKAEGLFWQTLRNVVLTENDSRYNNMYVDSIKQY
Method in brief: as §1

Row | SMILES | IC50 (human TLR7) [nM] | IC50 (human TLR9) [nM] | IC50 (human TLR8) [nM]
1 | Cc1cc2c(C3CCCNC3)n[nH]c2cc1-c1cn(C)c2ncccc12 (stereo not drawn) [Example 47, 5-methyl-6-(1-methyl-1H-pyrrolo[2,3-b]pyridin-3-yl)-3-(piperidin-3-yl)-1H-indazole] | 22.9 | 2880 | 0.2
2 | Cc1cc(-c2cc(C)c3ncnn3c2)cc2[nH]ncc12 [Example 65, 8-methyl-6-(4-methyl-1H-indazol-6-yl)-[1,2,4]triazolo[1,5-a]pyridine] | 219 | ≥ 50000 | 47
3 | CCc1cc(-c2cc(C)c3ncnn3c2)cc2[nH]nc(C3CCNCC3)c12 [Example 109, 6-(4-ethyl-3-(piperidin-4-yl)-1H-indazol-6-yl)-8-methyl-[1,2,4]triazolo[1,5-a]pyridine] | 2 | 1630 | 2.6
4 | Cc1cc2c(C3CCCNC3)n[nH]c2cc1-c1ccc2ncnn2c1 (stereo not drawn) [Example 58, 6-(5-methyl-3-(piperidin-3-yl)-1H-indazol-6-yl)-[1,2,4]triazolo[1,5-a] pyridine] | 76.2 | 661 | 2.8
5 | Cc1cc(-c2cc(C)c3ncnn3c2)cc2[nH]nc(OC3CCN(CC(=O)N(C)C)CC3)c12 [Example 176, N,N-dimethyl-2-(4-((4-methyl-6-(8-methyl-[1,2,4]triazolo[1,5-a]pyridin-6-yl)-1H-indazol-3-yl)oxy)piperidin-1-yl)acetamide] | 12.5 | 4920 | 3.8
6 | COc1cc(-c2cc3[nH]nc(C4CCCNC4)c3cc2C)cn2ncnc12 (stereo not drawn) [Example 45, 8-methoxy-6-(5-methyl-3-(piperidin-3-yl)-1H-indazol-6-yl)-[1,2,4]triazolo[1,5-a]pyridine] | 19.2 | ≥ 50000 | 0.7

The remaining lines, values ahead:

Row | IC50 (human TLR7) [nM] | IC50 (human TLR9) [nM] | IC50 (human TLR8) [nM] | SMILES
7 | 0.4 | 13100 | 0.2 | COc1cc(-c2cc3[nH]nc(C4CCC(N5CC(OC)C5)CC4)c3cc2C(C)C)cn2ncnc12 (single isomer, unassigned) [Example 147, 6-(5-isopropyl-3-(4-(3-methoxyazetidin-1-yl)cyclohexyl)-1H-indazol-6-yl)-8-methoxy-[1,2,4]triazolo[1,5-a]pyridine]
8 | 2 | 4570 | 0.3 | Cc1cc(-c2cc3[nH]nc(C4CCC(N5CCCC5)CC4)c3cc2C(C)C)cn2ncnc12 (single isomer, unassigned) [Example 131, 6-(5-isopropyl-3-(4-(pyrrolidin-1-yl)cyclohexyl)-1H-indazol-6-yl)-8-methyl-[1,2,4]triazolo[1,5-a]pyridine]
9 | 5.8 | 11900 | 0.12 | Cc1cc(-c2cc3[nH]nc(N4CCN(C(C)C)CC4)c3cc2C(C)C)cn2ncnc12 [Example 208, 6-(5-isopropyl-3-(4-isopropylpiperazin-1-yl)-1H-indazol-6-yl)-8-methyl-[1,2,4]triazolo[1,5-a]pyridine]
10 | 29.7 | 3100 | 0.8 | Cc1cc2c(C3CCC(NC4COC4)CC3)n[nH]c2cc1-c1cc(C)c2ncnn2c1 (single isomer, unassigned) [Example 35, N-(4-(5-methyl-6-(8-methyl-[1,2,4]triazolo[1,5-a]pyridin-6-yl)-1H-indazol-3-yl)cyclohexyl)oxetan-3-amine]
11 | 6.4 | 8400 | 0.5 | Cc1cc(-c2cc3[nH]nc(C4CCC(N5CC(OC(C)C)C5)CC4)c3cc2C(C)C)cn2ncnc12 (single isomer, unassigned) [Example 161, 6-(3-(4-(3-isopropoxyazetidin-1-yl)cyclohexyl)-5-isopropyl-1H-indazol-6-yl)-8-methyl-[1,2,4]triazolo[1,5-a]pyridine]
